Results as given in patent publication US8729089B2 (Gilead Sciences, Inc., priority 2006, dated 2014).

Key:
[1] = tested on: HCV replicon in human hepatoma Huh-7 cell line; assay: Anti-HCV replicon assay (EC50, luciferase); assay type: cell-based; conditions: Hepatitis C virus, Huh-7, 72 h
Protocol: (§1) The anti-HCV activity of the pyrido[3,2-d]pyrimidine derivatives of this invention was tested in a human hepatoma Huh-7 cell line harboring a HCV replicon. The assay comprised the following steps:
(§2) Step 1: Compound Preparation and Serial Dilution
(§3) • 1. for water soluble pyrido[3,2-d]pyrimidine derivatives, a volume of 500 μL of solution in cell media (DMEM, 10% FBS, P/S, L-Glutamine) was prepared with a concentration being twice the concentration of the starting final serial dilution concentration. A volume of 150 μL of the solution was added to the pre-specified wells in column 1 of a 96-well cell culture plate (PerkinElmer, white plate, cat. #6005181, for EC50 assay; black plate, cat. #6005182 for CC50 assay). The rest of the plate, columns 2-12, was filled with 100 μL of cell media. The plate was then placed on a Precision 2000 Workstation to start the serial dilution. Compounds were diluted three times each step from column 1 to column 10. Column 11 was used as a blank control (no compound added). • 2. for pyrido[3,2-d]pyrimidine derivatives requiring DMSO to dissolve, serial dilution is performed in 50% DMSO in a 384-well plate. A solution containing a compound at 100-fold concentration of the starting final serial dilution concentration was prepared in 50% DMSO and added to the pre-specified wells in column 1 of a polypropylene 384-well plate. The plate was then placed on a Precision 2000 Workstation to start the serial dilution. After the serial dilution, a volume of 2 μL of the solution was transferred from the 384-well plate to a 96-well cell culture plate containing 100 μL of cell media on a Biomek FX Workstation. The DMSO concentration in the final assay condition was 0.5% after cells are added to the plate and the total volume in each well is brought to 200 μL.
(§4) Step 2: to each well of the serial dilution plate prepared above, 100 μL of cell media containing 6000 suspended Huh-7 HCV replicon cells was added with a Multidrop workstation. The plates were incubated for 3 days at 37° C. with 5% CO2.
(§5) • a) for the EC50 assay, the media in a 96-well cell culture plate was aspirated with a Biotek EL405 plate-washer. A volume of 200 μL of a solution containing a 1:1 mixture of cell-lysis buffer (Promega, Luciferase Cell Culture Lysis 5× Reagent, cat. #E1531) and luciferase substrate solution (Promega, Luciferase Assay, cat.#E4550) was added to each well of the plate with Multidrop. The plate was incubated for 30 minutes at room temperature before the luminescence signal was measured with a TopCount plate-reader. • b) for the CC50 assay, a volume of 100 μL of pre-mixed CellTiter-Glo (Promega, cat.#G7572) solution is added directly to the cell culture in each well of the plate and the luminescence signal is measured with a TopCount plate-reader after 10 minutes of incubation at room temperature.

[2] = CC50 assay (CellTiter-Glo) in Huh-7 HCV replicon cells; assay type: cell-based, human; conditions: human, 3 days incubation, CellTiter-Glo readout
Protocol: as §1, §2, §3, §4, §5

SMILES	EC50 [1] [µM]	CC50 at 3 days [2] [µM]
CCOc1nc(NCc2ccc(F)cc2)nc2ccc(-c3ccc4c(c3)CC(=O)N4)nc12 [Example 78, 5-[4-Ethoxy-2-(4-fluoro-benzylamino)-pyrido[3,2-d]pyrimidin-6-yl]-1,3-dihydro-indol-2-one]	< 0.1	5 to 25
CCOc1nc(NCc2ccc(F)cc2)nc2ccc(-c3ccc(NC(=O)C4CC4)nc3)nc12 [Example 79, Cyclopropanecarboxylic acid {5-[4-ethoxy-2-(4-fluoro-benzylamino)-pyrido[3,2-d]pyrimidin-6-yl]-pyridin-2-yl}-amide]	< 0.1	5 to 25
CCOc1nc(NCc2ccc(F)cc2)nc2ccc(-c3cnc(NC(=O)C4CC4)nc3)nc12 [Example 80, Cyclopropanecarboxylic acid {5-[4-ethoxy-2-(4-fluoro-benzylamino)-pyrido[3,2-d]pyrimidin-6-yl]-pyrimidin-2-yl}-amide]	< 0.1	5 to 25
CCOc1nc(NCc2ccc(F)cc2)nc2ccc(-c3cccc(NS(=O)(=O)CCN4CCCC4)c3)nc12 [Example 81, 2-Pyrrolidin-1-yl-ethanesulfonic acid {3-[4-ethoxy-2-(4-fluoro-benzylamino)-pyrido[3,2-d]pyrimidin-6-yl]-phenyl}-amide]	< 0.1	< 5
CCOc1nc(NCc2ccc(F)cc2)nc2ccc(-c3cccc(NS(=O)(=O)C4CC4)c3)nc12 [Example 82, Cyclopropanesulfonic acid {3-[4-ethoxy-2-(4-fluoro-benzylamino)-pyrido[3,2-d]pyrimidin-6-yl]-phenyl}-amide]	< 0.1	< 5
CCOc1nc(NCc2ccc(F)cc2)nc2ccc(-c3ccc(S(N)(=O)=O)cc3)nc12 [Example 83, 4-[4-Ethoxy-2-(4-fluoro-benzylamino)-pyrido[3,2-d]pyrimidin-6-yl]-benzenesulfonamide]	< 0.1	5 to 25
CCOc1nc(NCc2ccc(F)cc2)nc2ccc(-c3cccc(NS(=O)(=O)N(C)C)c3)nc12 [Example 84, N′-{3-[4-Ethoxy-2-(4-fluoro-benzylamino)-pyrido[3,2-d]pyrimidin-6-yl]-phenyl}-N.N-dimethyl methanesulfonyl urea]	< 0.1	< 5
CCOc1nc(NCc2ccc(F)cc2)nc2ccc(-c3cccc(S(N)(=O)=O)c3)nc12 [Example 85, 3-[4-Ethoxy-2-(4-fluoro-benzylamino)-pyrido[3,2-d]pyrimidin-6-yl]-benzenesulfonamide]	< 0.1	5 to 25
CCOc1nc(NCc2ccc(F)cc2)nc2ccc(-c3ccc(N4CCC(O)C4=O)cc3)nc12 (centres unmarked) [Example 86, 1-{4-[4-Ethoxy-2-(4-fluoro-benzylamino)-pyrido[3,2-d]pyrimidin-6-yl]-phenyl}-3-hydroxy-pyrrolidin-2-one]	< 0.1	< 5
CCOc1nc(NCc2ccc(F)cc2)nc2ccc(-c3ccc(F)nc3)nc12 [Example 87, [4-Ethoxy-6-(6-fluoro-pyridin-3-yl)-pyrido[3,2-d]pyrimidin-2-yl]-(4-fluoro-benzyl)-amine]	< 0.1	< 5
CCOc1nc(NCc2ccc(F)cc2)nc2ccc(-c3ccc(NC(=O)[C@@H]4C[C@@H](O)CN4)cc3)nc12 [Example 88, 4-Hydroxy-pyrrolidine-2-carboxylic acid {4-[4-ethoxy-2-(4-fluoro-benzylamino)-pyrido[3,2-d]pyrimidin-6-yl]-phenyl}-amide]	< 0.1	5 to 25
CCOc1nc(NCc2ccc(F)cc2)nc2ccc(-c3ccc(NC(=O)[C@@H]4CCCN4)cc3)nc12 [Example 89, Pyrrolidine-2-carboxylic acid {4-[4-ethoxy-2-(4-fluoro-benzylamino)-pyrido[3,2-d]pyrimidin-6-yl]-phenyl}-amide]	< 0.1	< 5
CCOc1nc(NCc2ccc(F)cc2)nc2ccc(-c3ccc(NC(=O)[C@H]4CCNC4)c(F)c3)nc12 [Example 90, Pyrrolidine-3-carboxylic acid {4-[4-ethoxy-2-(4-fluoro-benzylamino)-pyrido[3,2-d]pyrimidin-6-yl]-2-fluoro-phenyl}-amide]	< 0.1	< 5
CCOc1nc(NCc2ccc(F)cc2)nc2ccc(-c3ccc(NC(=O)[C@H]4CCNC4)cc3)nc12 [Example 91, Pyrrolidine-3-carboxylic acid {4-[4-ethoxy-2-(4-fluoro-benzylamino)-pyrido[3,2-d]pyrimidin-6-yl]-phenyl}-amide]	< 0.1	< 5
CCOc1nc(NCc2ccc(F)cc2)nc2ccc(-c3ccc(NC(=O)OCCN4CCCC4)cc3)nc12 [Example 92, {4-[4-Ethoxy-2-(4-fluoro-benzylamino)-pyrido[3,2-d]pyrimidin-6-yl]-phenyl}-carbamic acid 2-pyrrolidin-1-yl-ethyl ester]	< 0.1	< 5
CCOc1nc(NCc2ccc(F)cc2)nc2ccc(-c3ccc(NC(=O)NCCN4CCCC4)cc3)nc12 [Example 93, 1-{4-[4-Ethoxy-2-(4-fluoro-benzylamino)-pyrido[3,2-d]pyrimidin-6-yl]-phenyl}-3-(2-pyrrolidin-1-yl-ethyl)-urea]	< 0.1	< 5
CCOc1nc(NCc2ccc(F)cc2)nc2ccc(-c3ccc(C(=O)NC(C)(C)CO)cc3)nc12 [Example 94, 4-[4-Ethoxy-2-(4-fluoro-benzylamino)-pyrido[3,2-d]pyrimidin-6-yl]-N-(2-hydroxy-1,1-dimethyl-ethyl)-benzamide]	< 0.1	5 to 25
CCOc1nc(NCc2ccc(F)cc2)nc2ccc(-c3ccc(C(=O)NC(C)(C)CN4CCCC4)cc3)nc12 [Example 95, N-(1,1-Dimethyl-2-pyrrolidin-1-yl-ethyl)-4-[4-ethoxy-2-(4-fluoro-benzylamino)-pyrido[3,2-d]pyrimidin-6-yl]-benzamide]	< 0.1	< 5
CCOc1nc(NC2(c3ccc(F)cc3)CC2)nc2ccc(-c3ccc(C(=O)NC(C)(C)CN4CCCC4)cc3)nc12 [Example 96, N-(1,1-Dimethyl-2-pyrrolidin-1-yl-ethyl)-4-{4-ethoxy-2-[1-(4-fluoro-phenyl)-cyclopropylamino]-pyrido[3,2-d]pyrimidin-6-yl}-benzamide]	< 0.1	< 5
CCOc1nc(NCc2ccc(F)cc2)nc2ccc(-c3ccc(CO)o3)nc12 [Example 97, {5-[4-Ethoxy-2-(4-fluoro-benzylamino)-pyrido[3,2-d]pyrimidin-6-yl]-furan-2-yl}-methanol]	< 0.1	5 to 25
CCOc1nc(NCc2ccc(F)cc2)nc2ccc(-c3ccc(C(=O)NC4(C#N)CC4)cc3)nc12 [Example 98, N-(1-Cyano-cyclopropyl)-4-[4-ethoxy-2-(4-fluoro-benzylamino)-pyrido[3,2-d]pyrimidin-6-yl]-benzamide]	< 0.1	> 25
CCOc1nc(NCc2ccc(F)cc2)nc2ccc(-c3ccc(NC(=O)C4(N)CC4)cc3)nc12 [Example 99, 1-Amino-cyclopropanecarboxylic acid {4-[4-ethoxy-2-(4-fluoro-benzylamino)-pyrido[3,2-d]pyrimidin-6-yl]-phenyl}-amide]	< 0.1	< 5
CCOc1nc(NCc2ccc(F)cc2)nc2ccc(-c3cnc(N)s3)nc12 [Example 100, [6-(2-Amino-thiazol-5-yl)-4-ethoxy-pyrido[3,2-d]pyrimidin-2-yl]-(4-fluoro-benzyl)-amine]	< 0.1	< 5
CCOc1nc(NCc2ccc(F)cc2)nc2ccc(-c3ccc(NC(=O)C4(O)CC4)cc3)nc12 [Example 101, 1-Hydroxy-cyclopropanecarboxylic acid {4-[4-ethoxy-2-(4-fluoro-benzylamino)-pyrido[3,2-d]pyrimidin-6-yl]-phenyl}-amide]	< 0.1	5 to 25
CCOc1nc(NCc2ccc(F)cc2)nc2ccc(-c3cccc(N(CCO)S(C)(=O)=O)c3)nc12 [Example 102, N-{3-[4-Ethoxy-2-(4-fluoro-benzylamino)-pyrido[3,2-d]pyrimidin-6-yl]-phenyl}-N-(2-hydroxy-ethyl)-methanesulfonamide]	< 0.1	5 to 25
